We go through one compound from publication PMC6934184, “Selective DNA-PKcs inhibition extends the therapeutic index of localized radiotherapy and chemotherapy” (The Journal of Clinical Investigation, 2019).

In the assay the target is T1, AMPK (A2/B2/G1) (Homo sapiens, UniProt P54646).
T1 construct: purchased Thermo Fisher Scientific (Life Technologies) SelectScreen
The experiment in a line: SelectScreen LanthaScreen. Format: binding. Particulars: read-out: % displacement. The procedure, abridged: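 NU5455 was profiled across the SelectScreen Broad panel of kinase activity and binding assays. Z'LYTE reactions such as CSF1R ran at apparent Km ATP, while the Adapta CAMK1 assay used ATP listed as 10. Values are given as percent.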

T1 sequence (P54646 whole entry): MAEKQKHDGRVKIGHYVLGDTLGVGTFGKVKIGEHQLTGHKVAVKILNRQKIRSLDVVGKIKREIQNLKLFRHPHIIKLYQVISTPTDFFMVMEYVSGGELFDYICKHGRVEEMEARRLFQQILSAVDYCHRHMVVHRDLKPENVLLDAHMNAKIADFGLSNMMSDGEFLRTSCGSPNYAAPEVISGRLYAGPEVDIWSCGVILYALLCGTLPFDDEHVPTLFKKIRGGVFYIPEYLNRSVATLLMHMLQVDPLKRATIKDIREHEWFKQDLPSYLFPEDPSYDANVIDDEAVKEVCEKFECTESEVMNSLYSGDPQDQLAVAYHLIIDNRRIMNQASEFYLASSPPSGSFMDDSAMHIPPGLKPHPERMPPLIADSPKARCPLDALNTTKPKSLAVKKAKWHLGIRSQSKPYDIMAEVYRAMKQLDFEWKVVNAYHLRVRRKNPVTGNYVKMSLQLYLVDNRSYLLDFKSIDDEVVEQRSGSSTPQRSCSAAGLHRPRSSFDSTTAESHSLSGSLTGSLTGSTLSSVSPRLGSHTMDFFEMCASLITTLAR
T1 sequence (O43741 whole entry partner): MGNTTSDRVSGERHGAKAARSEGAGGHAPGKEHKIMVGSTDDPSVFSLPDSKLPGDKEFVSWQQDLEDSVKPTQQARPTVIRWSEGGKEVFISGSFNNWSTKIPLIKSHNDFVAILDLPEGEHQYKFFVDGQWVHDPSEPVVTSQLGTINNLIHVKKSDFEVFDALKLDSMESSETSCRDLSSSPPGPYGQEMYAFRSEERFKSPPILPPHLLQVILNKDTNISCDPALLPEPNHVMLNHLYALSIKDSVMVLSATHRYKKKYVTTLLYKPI
T1 sequence (P54619 whole entry partner): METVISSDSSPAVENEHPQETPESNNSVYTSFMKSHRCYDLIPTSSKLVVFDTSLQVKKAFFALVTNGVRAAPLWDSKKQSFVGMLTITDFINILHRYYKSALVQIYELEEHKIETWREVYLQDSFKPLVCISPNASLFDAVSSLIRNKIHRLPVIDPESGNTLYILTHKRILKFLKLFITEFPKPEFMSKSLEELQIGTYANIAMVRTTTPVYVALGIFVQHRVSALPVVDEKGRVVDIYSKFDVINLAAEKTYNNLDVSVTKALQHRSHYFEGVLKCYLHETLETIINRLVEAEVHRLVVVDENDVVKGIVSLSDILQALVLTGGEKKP

As to `CN(C(=O)CN1CCOCC1)c1ccc2sc3c(-c4cccc5c(=O)cc(N6CC7CCC(C6)O7)oc45)cccc3c2c1` [NU5455], the inhibition at 1 µM was -2.3%.
